From US9062050B2, “Inhibitor of JAK1 and JAK2” (Eli Lilly and Company, priority 2012, dated 2015) come the findings set out here.

The experiment concerns the target T1, JAK3 (Homo sapiens, UniProt P52333).
T1 sequence (P52333 1-1124): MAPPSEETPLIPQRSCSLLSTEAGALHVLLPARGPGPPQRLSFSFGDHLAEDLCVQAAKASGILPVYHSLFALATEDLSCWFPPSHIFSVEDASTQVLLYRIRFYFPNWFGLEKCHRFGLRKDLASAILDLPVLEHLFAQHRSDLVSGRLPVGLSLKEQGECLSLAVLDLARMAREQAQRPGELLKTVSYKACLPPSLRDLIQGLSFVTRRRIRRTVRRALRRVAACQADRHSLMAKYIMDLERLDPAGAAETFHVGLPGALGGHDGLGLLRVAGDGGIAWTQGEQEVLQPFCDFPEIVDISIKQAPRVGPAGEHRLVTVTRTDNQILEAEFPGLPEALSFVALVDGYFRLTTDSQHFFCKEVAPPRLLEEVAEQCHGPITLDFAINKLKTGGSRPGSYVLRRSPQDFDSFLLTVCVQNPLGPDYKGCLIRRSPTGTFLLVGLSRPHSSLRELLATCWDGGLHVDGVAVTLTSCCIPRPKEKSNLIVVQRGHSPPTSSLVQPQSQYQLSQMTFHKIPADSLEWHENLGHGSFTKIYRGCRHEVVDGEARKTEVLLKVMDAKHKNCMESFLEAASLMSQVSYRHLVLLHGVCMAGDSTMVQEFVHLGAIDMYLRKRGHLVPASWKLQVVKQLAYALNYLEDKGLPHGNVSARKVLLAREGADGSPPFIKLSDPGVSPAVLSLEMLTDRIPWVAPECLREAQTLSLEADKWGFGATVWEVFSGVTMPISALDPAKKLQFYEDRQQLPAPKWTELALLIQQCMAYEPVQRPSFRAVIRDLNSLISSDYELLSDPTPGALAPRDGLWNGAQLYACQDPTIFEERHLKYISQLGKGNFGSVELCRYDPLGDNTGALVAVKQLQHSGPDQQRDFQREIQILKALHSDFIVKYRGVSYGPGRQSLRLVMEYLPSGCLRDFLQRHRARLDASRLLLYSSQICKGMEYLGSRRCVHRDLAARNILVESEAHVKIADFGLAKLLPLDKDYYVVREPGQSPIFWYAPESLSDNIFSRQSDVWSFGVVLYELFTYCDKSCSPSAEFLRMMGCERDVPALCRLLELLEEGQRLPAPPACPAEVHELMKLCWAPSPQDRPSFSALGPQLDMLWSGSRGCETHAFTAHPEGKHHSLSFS
As to the kind of experiment: JAK LanthaScreen Kinase Assay (TR-FRET), JAK3. It is filed as biochemical. An excerpt: The JAK LanthaScreen™ Kinase Assay (Life Technologies, #PV4844) is used to determine compound IC50 values against the JAK1, JAK2, and JAK3 kinases. This kinase assay is a Time Resolved Fluorescence Resonance Energy Transfer (TR-FRET) assay format that uses long-lifetime terbium (Tb) labeled antibody as the donor species and Green Fluorescent Protein-Signal Transducers and Activators of Transcription (GFP-STAT1) as the acceptor species.
The TR-FRET ratio is used to monitor JAK1, JAK2, or JAK3 activity where an increase in phosphorylation of the GFP-STAT1 results in an increase in the TR-FRET ratio. Perform the kinase reaction using a 12.5 microliter reaction volume in shallow black 384-well Proxiplate (PerkinElmer, #6008260). […] Incubate at room temperature for 90 minutes, and read in an EnVision plate reader (PerkinElmer, #2104-0010) with 340 nm wavelength excitation filter and emission filters of 520 nm and 495 nm wavelengths. The ratio is derived from the emission wavelength for the GFP-STAT1 which is measured at 520 nanometer versus the emission at 495 nanometer for the Tb-anti-pSTAT1[pTyr701]. Derive the IC50 value for the compound using percent inhibition data, which is calculated from the reaction data relative to on-plate controls (active enzyme versus 2.0 micromolar control-inhibited enzyme). […]
Background: Time-resolved FRET reads energy transfer from a long-lived donor to a nearby acceptor.

Each structure is given as a SMILES string.

The term IC50 denotes the concentration at which inhibition is half-maximal. Regarding `Cc1cc(Nc2ccc3ncn([C@@H]4CCc5ccc(F)cc54)c3n2)[nH]n1.Cl.Cl` [Example 1, 3-[(1R)-6-fluoro-2,3-dihydro-1H-inden-1-yl]-N-(3-methyl-1H-pyrazol-5-yl)-3H-imidazo[4,5-b]pyridin-5-amine dihydrochloride], where the note is “enzyme assay, 2 micromolar ATP, n=6, read-out: IC50 against JAK3”, the IC50 stood at 8 nM. For the same compound, for the setting “enzyme assays, JAK1 and JAK2 versus JAK3”, the “selectivity for JAK1 and JAK2 over JAK3 in the enzyme assays” value is “greater than four-fold”.
